In EP4745137A1 (Gluetacs Therapeutics (Shanghai) Co., Ltd., priority 2023, dated 2025):

Legend:
WEE1 = target: T1, WEE1 (Homo sapiens, UniProt P30291+Q96SW2); test: Western-blot assay of substrate protein degradation in hPBMCs, WEE1; format: cell-based; conditions: 24 hours of compound treatment, compounds tested at 50 nM and 500 nM (concentration of the table not stated)
T1 construct: endogenous in cells; host or cells: hPBMCs (Milecell Biotechnologies)

IKZF1 = target: T2, IKZF1 (Homo sapiens, UniProt Q13422+Q96SW2); test: Western-blot assay of substrate protein degradation in hPBMCs, IKZF1; format: cell-based; conditions: 24 hours of compound treatment, compounds tested at 50 nM and 500 nM (concentration of the table not stated)
T2 construct: endogenous in cells; host or cells: hPBMCs (Milecell Biotechnologies)
T2 sequence (Q13422 whole entry): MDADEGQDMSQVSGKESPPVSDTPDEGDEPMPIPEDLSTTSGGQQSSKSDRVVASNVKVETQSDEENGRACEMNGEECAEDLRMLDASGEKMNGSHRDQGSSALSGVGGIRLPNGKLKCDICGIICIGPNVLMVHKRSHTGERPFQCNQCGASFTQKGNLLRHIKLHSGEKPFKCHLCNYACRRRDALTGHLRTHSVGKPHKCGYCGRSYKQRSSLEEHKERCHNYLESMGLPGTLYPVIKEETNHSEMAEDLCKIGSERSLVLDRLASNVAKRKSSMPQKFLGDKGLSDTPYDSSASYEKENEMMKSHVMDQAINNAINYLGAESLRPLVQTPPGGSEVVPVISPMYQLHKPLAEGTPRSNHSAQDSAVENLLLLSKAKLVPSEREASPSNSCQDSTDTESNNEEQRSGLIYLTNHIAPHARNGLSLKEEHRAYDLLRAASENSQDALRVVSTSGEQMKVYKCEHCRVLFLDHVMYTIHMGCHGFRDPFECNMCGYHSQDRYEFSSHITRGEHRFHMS
T2 sequence (Q96SW2 whole entry): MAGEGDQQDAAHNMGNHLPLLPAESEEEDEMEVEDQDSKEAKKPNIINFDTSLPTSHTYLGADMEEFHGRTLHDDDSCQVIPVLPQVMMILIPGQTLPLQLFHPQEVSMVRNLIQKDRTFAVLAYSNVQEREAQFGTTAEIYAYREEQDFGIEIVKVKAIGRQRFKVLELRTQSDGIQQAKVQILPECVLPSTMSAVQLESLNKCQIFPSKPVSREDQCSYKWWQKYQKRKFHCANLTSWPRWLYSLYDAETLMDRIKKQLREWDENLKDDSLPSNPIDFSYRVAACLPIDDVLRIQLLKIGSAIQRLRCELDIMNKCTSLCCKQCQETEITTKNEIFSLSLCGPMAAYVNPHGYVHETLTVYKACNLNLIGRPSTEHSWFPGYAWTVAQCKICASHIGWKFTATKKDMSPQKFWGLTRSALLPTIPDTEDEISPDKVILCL
T2 sequence (Q16531 whole entry partner): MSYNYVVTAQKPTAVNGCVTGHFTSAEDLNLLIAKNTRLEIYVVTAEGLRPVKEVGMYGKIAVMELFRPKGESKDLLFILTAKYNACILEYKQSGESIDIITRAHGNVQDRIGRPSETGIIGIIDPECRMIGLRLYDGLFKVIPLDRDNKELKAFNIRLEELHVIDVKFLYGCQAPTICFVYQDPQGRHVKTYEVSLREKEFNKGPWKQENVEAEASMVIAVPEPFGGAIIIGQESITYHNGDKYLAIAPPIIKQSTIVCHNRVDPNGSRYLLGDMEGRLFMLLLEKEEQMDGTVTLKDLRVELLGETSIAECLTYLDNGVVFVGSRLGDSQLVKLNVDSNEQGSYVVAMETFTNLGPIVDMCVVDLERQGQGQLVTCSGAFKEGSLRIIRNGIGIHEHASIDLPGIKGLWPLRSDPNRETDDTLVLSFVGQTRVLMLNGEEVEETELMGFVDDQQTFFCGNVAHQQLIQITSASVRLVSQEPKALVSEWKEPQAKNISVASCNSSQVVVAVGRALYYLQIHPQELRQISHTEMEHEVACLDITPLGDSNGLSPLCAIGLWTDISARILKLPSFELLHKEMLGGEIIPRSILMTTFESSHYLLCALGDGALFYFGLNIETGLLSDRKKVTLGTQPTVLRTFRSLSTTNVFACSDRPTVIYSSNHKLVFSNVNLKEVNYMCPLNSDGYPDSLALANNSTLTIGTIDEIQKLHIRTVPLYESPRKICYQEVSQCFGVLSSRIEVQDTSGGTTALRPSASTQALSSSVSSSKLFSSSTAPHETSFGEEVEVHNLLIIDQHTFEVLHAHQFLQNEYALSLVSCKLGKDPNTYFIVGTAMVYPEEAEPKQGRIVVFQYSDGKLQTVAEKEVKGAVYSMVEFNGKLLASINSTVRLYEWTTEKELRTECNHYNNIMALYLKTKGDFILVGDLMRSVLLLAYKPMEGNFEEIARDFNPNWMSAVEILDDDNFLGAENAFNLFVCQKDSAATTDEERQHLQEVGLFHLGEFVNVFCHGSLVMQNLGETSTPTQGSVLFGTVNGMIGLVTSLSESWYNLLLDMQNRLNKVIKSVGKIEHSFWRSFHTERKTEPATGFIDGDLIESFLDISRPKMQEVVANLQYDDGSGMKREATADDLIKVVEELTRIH

IKZF2 = target: T3, IKZF2 (Homo sapiens, UniProt Q96SW2+Q9UKS7); test: Western-blot assay of substrate protein degradation in hPBMCs, IKZF2; format: cell-based; conditions: 24 hours of compound treatment, compounds tested at 50 nM and 500 nM (concentration of the table not stated)
T3 construct: endogenous in cells; host or cells: hPBMCs (Milecell Biotechnologies)

IKZF3 = target: T4, IKZF3 (Homo sapiens, UniProt Q96SW2+Q9UKT9); test: Western-blot assay of substrate protein degradation in hPBMCs, IKZF3; format: cell-based; conditions: 24 hours of compound treatment, compounds tested at 50 nM and 500 nM (concentration of the table not stated)
T4 construct: endogenous in cells; host or cells: hPBMCs (Milecell Biotechnologies)
T4 sequence (Q9UKT9 whole entry): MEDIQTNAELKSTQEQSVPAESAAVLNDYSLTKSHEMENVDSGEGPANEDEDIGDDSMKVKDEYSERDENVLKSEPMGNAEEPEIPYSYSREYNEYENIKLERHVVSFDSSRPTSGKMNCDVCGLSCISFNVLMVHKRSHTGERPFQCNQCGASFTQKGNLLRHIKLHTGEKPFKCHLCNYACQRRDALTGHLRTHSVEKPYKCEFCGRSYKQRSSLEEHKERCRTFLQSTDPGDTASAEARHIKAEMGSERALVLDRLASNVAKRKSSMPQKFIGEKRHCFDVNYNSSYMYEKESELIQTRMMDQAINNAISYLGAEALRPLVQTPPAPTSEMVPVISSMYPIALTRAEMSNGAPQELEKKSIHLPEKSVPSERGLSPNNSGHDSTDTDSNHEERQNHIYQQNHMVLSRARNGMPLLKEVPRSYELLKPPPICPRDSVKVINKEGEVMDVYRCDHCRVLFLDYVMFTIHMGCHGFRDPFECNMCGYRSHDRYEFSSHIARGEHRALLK
T4 sequence (Q96SW2 whole entry): as the sequence (Q96SW2 whole entry) above
T4 sequence (Q16531 whole entry partner): as the sequence (Q16531 whole entry partner) above

CK1α = target: T5, CK1α (Homo sapiens, UniProt P48729+Q96SW2); test: Western-blot assay of substrate protein degradation in hPBMCs, CK1α; format: cell-based; conditions: 24 hours of compound treatment, compounds tested at 50 nM and 500 nM (concentration of the table not stated)
T5 construct: endogenous in cells; host or cells: hPBMCs (Milecell Biotechnologies)
T5 sequence (P48729 whole entry): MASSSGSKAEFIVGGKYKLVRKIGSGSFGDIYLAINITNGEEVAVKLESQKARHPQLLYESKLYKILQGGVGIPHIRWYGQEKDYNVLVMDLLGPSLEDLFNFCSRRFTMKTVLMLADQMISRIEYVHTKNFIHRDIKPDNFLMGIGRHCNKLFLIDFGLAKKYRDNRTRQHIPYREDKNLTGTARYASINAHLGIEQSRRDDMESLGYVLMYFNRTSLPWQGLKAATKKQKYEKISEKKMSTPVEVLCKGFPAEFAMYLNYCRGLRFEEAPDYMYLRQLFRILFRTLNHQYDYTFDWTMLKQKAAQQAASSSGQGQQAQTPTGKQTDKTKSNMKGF
T5 sequence (Q96SW2 whole entry): as the sequence (Q96SW2 whole entry) above
T5 sequence (Q16531 whole entry partner): as the sequence (Q16531 whole entry partner) above

GSPT1 = target: T6, GSPT1 (Homo sapiens, UniProt P15170+Q96SW2); test: Western-blot assay of substrate protein degradation in hPBMCs, GSPT1; format: cell-based; conditions: 24 hours of compound treatment, compounds tested at 50 nM and 500 nM (concentration of the table not stated)
T6 construct: endogenous in cells; host or cells: hPBMCs (Milecell Biotechnologies)
T6 sequence (P15170 whole entry): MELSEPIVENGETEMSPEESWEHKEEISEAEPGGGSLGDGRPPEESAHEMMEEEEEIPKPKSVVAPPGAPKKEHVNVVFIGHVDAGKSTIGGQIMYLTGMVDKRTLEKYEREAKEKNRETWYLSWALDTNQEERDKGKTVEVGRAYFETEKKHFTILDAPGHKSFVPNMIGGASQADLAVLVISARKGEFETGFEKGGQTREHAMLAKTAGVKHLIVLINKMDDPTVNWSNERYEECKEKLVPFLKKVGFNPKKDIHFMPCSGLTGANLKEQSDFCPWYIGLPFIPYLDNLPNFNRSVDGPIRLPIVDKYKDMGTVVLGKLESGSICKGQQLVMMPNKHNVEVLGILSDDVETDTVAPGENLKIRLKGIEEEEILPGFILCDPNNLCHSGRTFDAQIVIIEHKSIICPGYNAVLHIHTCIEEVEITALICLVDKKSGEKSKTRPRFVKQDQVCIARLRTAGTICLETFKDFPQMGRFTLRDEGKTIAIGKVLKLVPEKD
T6 sequence (Q96SW2 whole entry): as the sequence (Q96SW2 whole entry) above
T6 sequence (Q16531 whole entry partner): as the sequence (Q16531 whole entry partner) above

[1] = target: T7, human Cereblon WT GST-tagged protein (Homo sapiens, UniProt Q96SW2); test: CRBN-binding affinity by HTRF (CEREBLON BINDING kit); conditions: HTRF inhibitory activity, CEREBLON BINDING kit; read-out: HTRF IC50
T7 construct: purchased CISBIO 64BDCRBNPEH
T7 sequence (Q96SW2 whole entry): as the sequence (Q96SW2 whole entry) above

MM.1R = test: Tumor cell proliferation inhibition (CellTiter-Meiluncell Luminescent Cell Viability Assay), MM.1R; conditions: Homo sapiens, 96 h, read-out: inhibitory activity (IC50, nM) against tumor cells proliferation, MM.1R
Jurkat = test: Tumor cell proliferation inhibition (CellTiter-Meiluncell Luminescent Cell Viability Assay), Jurkat; conditions: Homo sapiens, 96 h, read-out: inhibitory activity (IC50, nM) against tumor cells proliferation, Jurkat
CAL-62 = test: Tumor cell proliferation inhibition (CellTiter-Meiluncell Luminescent Cell Viability Assay), CAL-62; conditions: Homo sapiens, CAL-62, 96 h, read-out: inhibitory activity (IC50, nM) against tumor cells proliferation, CAL-62
[2] = test system: Human acute T lymphocytic leukemia cells (Molt-4); test: Tumor cell proliferation inhibition (CellTiter-Meiluncell Luminescent Cell Viability Assay), Molt-4; conditions: MOLT-4, 96 h, read-out: inhibitory activity (IC50, nM) against tumor cells proliferation, Molt 4
NCI-H1975 = test: Tumor cell proliferation inhibition (CellTiter-Meiluncell Luminescent Cell Viability Assay), NCI-H1975; conditions: Homo sapiens, NCI-H1975, 96 h, read-out: inhibitory activity (IC50, nM) against tumor cells proliferation, H1975
[3] = test system: Human breast cancer cells (MDA-MB-231); test: Tumor cell proliferation inhibition (CellTiter-Meiluncell Luminescent Cell Viability Assay), MDA-MB-231; conditions: MDA-MB-231, 96 h, read-out: inhibitory activity (IC50, nM) against tumor cells proliferation, MDA-MB-231

T1 sequence (P30291 whole entry): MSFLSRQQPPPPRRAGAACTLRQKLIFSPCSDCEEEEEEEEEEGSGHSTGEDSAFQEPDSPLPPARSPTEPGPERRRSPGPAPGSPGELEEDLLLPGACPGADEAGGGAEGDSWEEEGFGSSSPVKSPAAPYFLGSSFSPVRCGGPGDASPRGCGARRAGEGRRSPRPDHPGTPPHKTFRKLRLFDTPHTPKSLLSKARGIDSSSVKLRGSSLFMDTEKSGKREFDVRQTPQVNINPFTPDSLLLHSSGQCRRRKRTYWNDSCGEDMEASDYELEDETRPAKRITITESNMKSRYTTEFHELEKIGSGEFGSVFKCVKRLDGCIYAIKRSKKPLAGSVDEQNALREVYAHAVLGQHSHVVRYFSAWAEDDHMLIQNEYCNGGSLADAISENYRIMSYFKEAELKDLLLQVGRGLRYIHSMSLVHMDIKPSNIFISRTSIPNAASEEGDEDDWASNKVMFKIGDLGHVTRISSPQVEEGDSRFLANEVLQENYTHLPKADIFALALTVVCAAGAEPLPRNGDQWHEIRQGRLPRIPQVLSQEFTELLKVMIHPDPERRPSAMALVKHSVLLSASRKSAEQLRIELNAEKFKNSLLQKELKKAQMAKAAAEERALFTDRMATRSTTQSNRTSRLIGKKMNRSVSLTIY
T1 sequence (Q96SW2 whole entry): as the sequence (Q96SW2 whole entry) above
T1 sequence (Q16531 whole entry partner): as the sequence (Q16531 whole entry partner) above

SMILES	Weel substrate protein remaining % (WEE1)	IKZF 1 substrate protein remaining % (IKZF1)	IKZF2 substrate protein remaining % (IKZF2)	IKZF3 substrate protein remaining % (IKZF3)	CK1a substrate protein remaining % (CK1α)	GSPT1 substrate protein remaining % (GSPT1)	IC50 [1] [nM]	IC50 (MM.1R) [nM]	IC50 (Jurkat) [nM]	IC50 (CAL-62) [nM]	IC50 [2] [nM]	IC50 (NCI-H1975) [nM]	IC50 [3] [nM]
Cc1cccc(N2CCN(Cc3ccc4c(c3)CN(C3CCC(=O)NC3=O)C4=O)CC2)n1 (stereo not drawn) [GT-04530, 3-(5-((4-(6-methylpyridin-2-yl)piperazin-1-yl)methyl)-1-oxoisoindolin-2-yl)piperidine-2,6-dione]	A (0% ≤ substrate protein remaining % ≤ 80%)	A (0% ≤ substrate protein remaining % ≤ 80%)	A (0% ≤ substrate protein remaining % ≤ 80%)	A (0% ≤ substrate protein remaining % ≤ 80%)	A (0% ≤ substrate protein remaining % ≤ 80%)	A (0% ≤ substrate protein remaining % ≤ 80%)	500 to 1000	10 to 50	5 to 10	10 to 50	10 to 50	100 to 500	50 to 100
O=C1CCC(N2Cc3cc(CN4CC=C(c5cccc(Cl)c5Cl)CC4)ccc3C2=O)C(=O)N1 (stereo not drawn) [GT-04550, 3-(5-((4-(2,3-dichlorophenyl)-3,6-dihydropyridin-1(2H)-yl)methyl)-1-oxoisoindolin-2-yl)piperidine-2,6-dione]	A (0% ≤ substrate protein remaining % ≤ 80%)	A (0% ≤ substrate protein remaining % ≤ 80%)	A (0% ≤ substrate protein remaining % ≤ 80%)	A (0% ≤ substrate protein remaining % ≤ 80%)	A (0% ≤ substrate protein remaining % ≤ 80%)	A (0% ≤ substrate protein remaining % ≤ 80%)	< 500	< 1	< 1	< 1	< 1	1 to 5	1 to 5
O=C1CCC(N2Cc3cc(CN4CCC(c5cccc(F)c5F)CC4)ccc3C2=O)C(=O)N1 (stereo not drawn) [GT-04552, 3-(5-((4-(2,3-difluorophenyl)piperidin-1-yl)methyl)-1-oxoisoindolin-2-yl)piperidine-2,6-dione]	A (0% ≤ substrate protein remaining % ≤ 80%)	A (0% ≤ substrate protein remaining % ≤ 80%)	A (0% ≤ substrate protein remaining % ≤ 80%)	A (0% ≤ substrate protein remaining % ≤ 80%)	A (0% ≤ substrate protein remaining % ≤ 80%)	A (0% ≤ substrate protein remaining % ≤ 80%)	1000 to 1500	5 to 10	1 to 5	5 to 10	1 to 5	10 to 50	50 to 100
O=C1CCC(N2Cc3cc(CN4CCN(c5cc(Cl)c(Cl)cn5)CC4)ccc3C2=O)C(=O)N1 (stereo not drawn) [GT-04533, 3-(5-((4-(4,5-dichloropyridin-2-yl)piperazin-1-yl)methyl)-1-oxoisoindolin-2-yl)piperidine-2,6-dione]	A (0% ≤ substrate protein remaining % ≤ 80%)	A (0% ≤ substrate protein remaining % ≤ 80%)	A (0% ≤ substrate protein remaining % ≤ 80%)	A (0% ≤ substrate protein remaining % ≤ 80%)	A (0% ≤ substrate protein remaining % ≤ 80%)	A (0% ≤ substrate protein remaining % ≤ 80%)	500 to 1000	1 to 5	1 to 5	5 to 10	1 to 5	50 to 100	50 to 100
O=C1CCC(N2Cc3cc(CN4CCN(c5ccc(F)cn5)CC4)ccc3C2=O)C(=O)N1 (stereo not drawn) [GT-04531, 3-(5-((4-(5-fluoropyridin-2-yl)piperazin-1-yl)methyl)-1-oxoisoindolin-2-yl)piperidine-2,6-dione]	A (0% ≤ substrate protein remaining % ≤ 80%)	A (0% ≤ substrate protein remaining % ≤ 80%)	A (0% ≤ substrate protein remaining % ≤ 80%)	A (0% ≤ substrate protein remaining % ≤ 80%)	A (0% ≤ substrate protein remaining % ≤ 80%)	A (0% ≤ substrate protein remaining % ≤ 80%)	500 to 1000	10 to 50	5 to 10	10 to 50	10 to 50	100 to 500	100 to 500
O=C1CCC(N2Cc3cc(CN4CCC(c5cccc(F)c5Cl)CC4)ccc3C2=O)C(=O)N1 (stereo not drawn) [GT-04553, 3-(5-((4-(2-chloro-3-fluorophenyl)piperidin-1-yl)methyl)-1-oxoisoindolin-2-yl)piperidine-2,6-dione]	A (0% ≤ substrate protein remaining % ≤ 80%)	A (0% ≤ substrate protein remaining % ≤ 80%)	A (0% ≤ substrate protein remaining % ≤ 80%)	A (0% ≤ substrate protein remaining % ≤ 80%)	A (0% ≤ substrate protein remaining % ≤ 80%)	A (0% ≤ substrate protein remaining % ≤ 80%)	1000 to 1500	1 to 5	1 to 5	1 to 5	1 to 5	10 to 50	10 to 50
O=C1CCC(N2Cc3cc(CN4CC=C(c5cncc(Cl)c5Cl)CC4)ccc3C2=O)C(=O)N1 (stereo not drawn) [GT-04558, 3-(5-((4,5-dichloro-3',6'-dihydro-[3,4'-bipyridin]-1'(2'H)-yl)methyl)-1-oxoisoindolin-2-yl)piperidine-2,6-dione]	A (0% ≤ substrate protein remaining % ≤ 80%)	A (0% ≤ substrate protein remaining % ≤ 80%)	A (0% ≤ substrate protein remaining % ≤ 80%)	A (0% ≤ substrate protein remaining % ≤ 80%)	A (0% ≤ substrate protein remaining % ≤ 80%)	A (0% ≤ substrate protein remaining % ≤ 80%)	< 500	< 1	< 1	1 to 5	1 to 5	5 to 10	5 to 10
O=C1CCC(N2Cc3cc(CN4CC=C(c5ccnc(F)c5F)CC4)ccc3C2=O)C(=O)N1 (stereo not drawn) [GT-04555, 3-(5-((2',3'-difluoro-3,6-dihydro-[4,4'-bipyridin]-1(2H)-yl)methyl)-1-oxoisoindolin-2-yl)piperidine-2,6-dione]	A (0% ≤ substrate protein remaining % ≤ 80%)	A (0% ≤ substrate protein remaining % ≤ 80%)	A (0% ≤ substrate protein remaining % ≤ 80%)	A (0% ≤ substrate protein remaining % ≤ 80%)	A (0% ≤ substrate protein remaining % ≤ 80%)	A (0% ≤ substrate protein remaining % ≤ 80%)	500 to 1000	5 to 10	5 to 10	10 to 50	10 to 50	100 to 500	500 to 1000
O=C1CCC(N2Cc3cc(CN4CCN(c5cccc(F)c5F)CC4)ccc3C2=O)C(=O)N1 (stereo not drawn) [GT-04515, 3-(5-((4-(2,3-difluorophenyl)piperazin-1-yl)methyl)-1-oxoisoindolin-2-yl)piperidine-2,6-dione]	A (0% ≤ substrate protein remaining % ≤ 80%)	A (0% ≤ substrate protein remaining % ≤ 80%)	A (0% ≤ substrate protein remaining % ≤ 80%)	A (0% ≤ substrate protein remaining % ≤ 80%)	A (0% ≤ substrate protein remaining % ≤ 80%)	A (0% ≤ substrate protein remaining % ≤ 80%)	500 to 1000	5 to 10	50 to 100	10 to 50	5 to 10	50 to 100	50 to 100
